Measurements as given in the NIST ThermoML archive (doi:10.1016/j.jct.2019.05.023).

Test: xn = mol fraction of the nth substance listed
Conditions: 101.3 kPa, Liquid; for speed of sound: Frequency=3 MHz, Single path-length method; for mass density: Vibrating tube method

CCOCCO [2-ethoxyethan-1-ol] + CCn1cc[n+](C)c1.O=S(=O)([O-])C(F)(F)F
Conditions	mass density, 298.15 K [kg/m3]	mass density, 303.15 K [kg/m3]	mass density, 308.15 K [kg/m3]	mass density, 313.15 K [kg/m3]	mass density, 318.15 K [kg/m3]	speed of sound, 298.15 K [m/s]	speed of sound, 303.15 K [m/s]	speed of sound, 308.15 K [m/s]	speed of sound, 313.15 K [m/s]	speed of sound, 318.15 K [m/s]
x2 = 0	926	921	917	912	907	1304	1287	1270	1252	1234
x2 = 0.067	981	976	971	967	962	1321	1305	1289	1272	1256
x2 = 0.133	1029	1024	1020	1015	1011	1333	1318	1302	1286	1271
x2 = 0.192	1066	1062	1058	1053	1049	1344	1329	1314	1299	1283
x2 = 0.268	1112	1107	1103	1099	1094	1356	1342	1328	1313	1299
x2 = 0.35	1157	1152	1148	1144	1139	1369	1355	1342	1328	1315
x2 = 0.428	1196	1191	1187	1183	1178	1380	1367	1354	1341	1328
x2 = 0.54	1245	1241	1237	1233	1228	1395	1383	1370	1358	1346
x2 = 0.609	1272	1268	1264	1260	1255	1403	1391	1379	1368	1356
x2 = 0.674	1295	1291	1287	1283	1278	1411	1399	1387	1376	1364
x2 = 0.734	1314	1310	1306	1302	1297	1417	1406	1394	1383	1372
x2 = 0.799	1332	1328	1324	1320	1315	1424	1412	1401	1390	1379
x2 = 0.884	1354	1350	1346	1342	1337	1431	1420	1409	1398	1387
x2 = 0.951	1371	1367	1363	1359	1354	1437	1425	1414	1403	1392

CCCOCCO [2-propoxyethanol] + CCn1cc[n+](C)c1.O=S(=O)([O-])C(F)(F)F
Conditions	mass density, 298.15 K [kg/m3]	mass density, 303.15 K [kg/m3]	mass density, 308.15 K [kg/m3]	mass density, 313.15 K [kg/m3]	mass density, 318.15 K [kg/m3]	speed of sound, 298.15 K [m/s]	speed of sound, 303.15 K [m/s]	speed of sound, 308.15 K [m/s]	speed of sound, 313.15 K [m/s]	speed of sound, 318.15 K [m/s]
x2 = 0	908	903	899	895	890	1301	1283	1266	1248	1231
x2 = 0.051	945	940	936	931	927	1308	1292	1275	1258	1241
x2 = 0.104	981	976	972	968	963	1317	1300	1284	1268	1252
x2 = 0.199	1042	1037	1033	1029	1024	1331	1316	1301	1286	1271
x2 = 0.241	1067	1063	1059	1054	1050	1338	1323	1308	1294	1279
x2 = 0.296	1098	1094	1089	1085	1081	1346	1332	1318	1304	1289
x2 = 0.416	1161	1157	1153	1149	1145	1364	1351	1338	1324	1311
x2 = 0.506	1204	1200	1196	1192	1187	1377	1364	1352	1339	1327
x2 = 0.606	1247	1243	1239	1235	1231	1391	1379	1367	1355	1343
x2 = 0.698	1284	1280	1276	1272	1268	1404	1392	1381	1369	1357
x2 = 0.808	1324	1320	1316	1311	1307	1419	1408	1396	1385	1374
x2 = 0.845	1336	1332	1328	1324	1320	1424	1413	1402	1390	1379
x2 = 0.898	1353	1349	1344	1340	1336	1431	1420	1409	1398	1386
x2 = 0.953	1369	1365	1361	1357	1353	1438	1427	1416	1405	1394
